Patent EP4763839A1 (Pamplona Therapeutics (Shenzhen) Co., Ltd., priority 2023, dated 2025)

Target: T1, IRAK4 (Homo sapiens, UniProt Q9NWZ3)
T1 sequence (Q9NWZ3 1-460): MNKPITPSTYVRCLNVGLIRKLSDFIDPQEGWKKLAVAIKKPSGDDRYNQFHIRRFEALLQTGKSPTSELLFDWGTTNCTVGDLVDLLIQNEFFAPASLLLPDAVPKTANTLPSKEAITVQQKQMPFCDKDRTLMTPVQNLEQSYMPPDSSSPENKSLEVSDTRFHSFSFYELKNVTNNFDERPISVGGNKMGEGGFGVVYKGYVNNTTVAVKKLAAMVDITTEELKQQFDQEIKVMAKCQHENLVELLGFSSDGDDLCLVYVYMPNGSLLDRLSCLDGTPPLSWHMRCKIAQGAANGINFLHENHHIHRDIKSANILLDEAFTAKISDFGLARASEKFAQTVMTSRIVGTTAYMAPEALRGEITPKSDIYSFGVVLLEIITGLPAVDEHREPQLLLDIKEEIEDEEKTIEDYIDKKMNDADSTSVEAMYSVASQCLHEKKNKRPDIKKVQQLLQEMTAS
Experiment: Assay for inhibitory effect of compound on IRAK4 kinase activity (KinEASE-STK S1 HTRF kit)
Type: biochemical
Conditions: kinase 8 nM, ATP 80 µM, 37°C 90 minutes; read-out: IRAK4 HTRF IC50
Experimental: Example 1: Kinase activity assay
Assay for inhibitory effect of compound on IRAK4 kinase activity
The inhibitory effect of the compound on IRAK4 kinase activity was measured using the KinEASE-STK S1 serine/threonine kinase kit (Cisbio). The specific method was as follows: the compound was dissolved in dimethyl sulfoxide and then subjected to 3-fold serial dilution in dimethyl sulfoxide, yielding final test compound concentrations in the reaction system ranging from 5,000 nM to 0.0254 nM. The kinase at a final concentration of 8 nM was added, followed by incubation at rt for 15 minutes. Subsequently, biotinylated STK1 substrate at a final concentration of 400 nM and adenosine triphosphate (ATP) at a final concentration of 80 µM were sequentially added, and the mixture was incubated at 37°C for 90 minutes. Then, the reaction was terminated by adding an anti-phosphoserine/threonine antibody conjugated with a europium cryptate and streptavidin-conjugated XL665 to the reaction system. After incubation at rt for 1 hour, the fluorescence intensity at emission wavelengths of 620 nm and 665 nm for each well was measured using an EnVision microplate reader (PerkinElmer) in HTRF mode. The ratio value was calculated using the formula: Ratio = (665 nm/620 nm)×10^4 The inhibition rate of the compound at each concentration was calculated using the formula: Inhibition% = [1-(Signal sample-Signal min)/(Signal max-Signal min)]×100. Subsequently, the dose-response curve was fitted by nonlinear curve fitting of log concentration versus inhibition rate using Fit Modela (205) in XLfit to give the IC50 value of the compound for inhibition of protein activity.

SMILES | IC50
NS(=O)(=O)c1nn(-c2ccccc2)cc1NC(=O)c1cccc(-c2c[nH]cn2)n1 [Compound A94, 6-(1H-imidazol-4-yl)-N-(1-phenyl-3-sulfamoyl-1H-pyrazol-4-yl)picolinamide] | < 0.1 µM
NS(=O)(=O)c1nn(-c2ccccc2)cc1NC(=O)c1cccc(-c2cc[nH]c2)n1 [Compound A95, N-(1-phenyl-3-sulfamoyl-1H-pyrazol-4-yl)-6-(1H-pyrrol-3-yl)picolinamide] | < 0.1 µM
CS(=N)(=O)c1nn(-c2ccccc2)cc1NC(=O)c1cccc(-c2cc[nH]n2)n1 (stereo not shown) [Compound A96, N-(3-(S-methylsulfonimidoyl)-1-phenyl-1H-pyrazol-4-yl)-6-(1H-pyrazol-3-yl)picolinamide] | 0.1 to 1 µM
CS(=N)(=O)c1nn(-c2ccccc2)cc1NC(=O)c1cccc(-c2cn[nH]c2)n1 (stereo not shown) [Compound A97, N-(3-(S-methylsulfonimidoyl)-1-phenyl-1H-pyrazol-4-yl)-6-(1H-pyrazol-4-yl)picolinamide] | < 0.1 µM
CS(=N)(=O)c1nn(-c2ccccc2)cc1NC(=O)c1cccc(-c2c[nH]cn2)n1 (stereo not shown) [Compound A98, 6-(1H-imidazol-4-yl)-N-(3-(S-methylsulfonimidoyl)-1-phenyl-1H-pyrazol-4-yl)picolinamide] | 0.1 to 1 µM
CC(C)(O)c1nn(C2CC3(CCNCC3)C2)cc1NC(=O)c1ccc2cc(C#N)cnn12 [Compound A106, 3-Cyano-N-(3-(2-hydroxypropan-2-yl)-1-(7-azaspiro[3.5]nonan-2-yl)-1H-pyrazol-4-yl)pyrrolo[1,2-b]pyridazine-7-carboxamide] | < 0.1 µM
CC(C)n1cc(-c2ccccc2)nc1NC(=O)c1cccc(C(F)(F)F)n1 [Compound A107, N-(1-isopropyl-4-phenyl-1H-imidazol-2-yl)-6-(trifluoromethyl)picolinamide] | > 1 µM
CC(C)n1nc(-c2ccccc2)nc1NC(=O)c1cccc(C(F)(F)F)n1 [Compound A108, N-(1-Isopropyl-3-phenyl-1H-1,2,4-triazol-5-yl)-6-(trifluoromethyl)picolinamide] | > 1 µM
NC(=O)c1nn(C2CCN(CCN3CCN(c4ccc5c(c4)C(=O)N(C4CCC(=O)NC4=O)C5=O)CC3)CC2)cc1NC(=O)c1cccc(C(F)(F)F)n1 (stereo not shown) [Compound A109] | 0.1 to 1 µM
NC(=O)c1nn(-c2ccc(C(=O)N3CC(CNc4ccc5c(c4)C(=O)N(C4CCC(=O)NC4=O)C5=O)C3)cc2)cc1NC(=O)c1cccc(C(F)(F)F)n1 (stereo not shown) [Compound A110] | < 0.1 µM
N#Cc1cnn2c(C(=O)Nc3cn(C4CC5(CCNCC5)C4)nc3C(F)F)ccc2c1 [Compound A229, 3-Cyano-N-(3-(difluoromethyl)-1-(7-azaspiro[3.5]nonan-2-yl)-1H-pyrazol-4-yl)pyrrolo[1,2-b]pyridazine-7-carboxamide] | < 0.1 µM
COc1nn(C2CC3(CCNCC3)C2)cc1NC(=O)c1ccc2cc(C#N)cnn12 [Compound A230, 3-Cyano-N-(3-methoxy-1-(7-azaspiro[3.5]nonan-2-yl)-1H-pyrazol-4-yl)pyrrolo[1,2-b]pyridazine-7-carboxamide] | < 0.1 µM
N#Cc1cnn2c(C(=O)Nc3cn(-c4ccccc4)nc3C(N)=O)ccc2c1 [Compound A231] | < 0.1 µM
CC(C)(O)c1nn(-c2ccccc2)cc1NC(=O)c1ccc2cc(C#N)cnn12 [Compound A232, 3-Cyano-N-(3-(2-hydroxypropan-2-yl)-1-phenyl-1H-pyrazol-4-yl)pyrrolo[1,2-b]pyridazine-7-carboxamide] | < 0.1 µM
N#Cc1cnn2c(C(=O)Nc3cn(-c4ccccc4)nc3C(F)F)ccc2c1 [Compound A233, 3-Cyano-N-(3-(difluoromethyl)-1-phenyl-1H-pyrazol-4-yl)pyrrolo[1,2-b]pyridazine-7-carboxamide] | < 0.1 µM
[C-]#[N+]c1cnn2c(C(=O)Nc3cn(-c4ccccc4)nc3OC)ccc2c1 [Compound A234, 3-Isocyano-N-(3-methoxy-1-phenyl-1H-pyrazol-4-yl)pyrrolo[1,2-b]pyridazine-7-carboxamide] | < 0.1 µM
N#Cc1cnn2c(C(=O)Nc3cn(C4CCCCC4)nc3C(N)=O)ccc2c1 [Compound A235] | < 0.1 µM

SMILES | IC50
O=C(Nc1cn(-c2ccccc2)nc1C(=O)CC(F)(F)F)c1cccc(-c2ccn[nH]2)n1 [Compound A236, N-(1-Phenyl-3-(3,3,3-trifluoropropanoyl)-1H-pyrazol-4-yl)-6-(1H-pyrazol-5-yl)picolinamide] | 0.1 to 1 µM
O=C(Nc1cn(-c2ccccc2)nc1OCC(F)(F)F)c1cccc(-c2ccn[nH]2)n1 [Compound A238, N-(1-Phenyl-3-(2,2,2-trifluoroethoxy)-1H-pyrazol-4-yl)-6-(1H-pyrazol-5-yl)picolinamide] | < 0.1 µM
O=C(Nc1cn(-c2ccccc2)nc1C(F)F)c1cccc(-c2ccn[nH]2)n1 [Compound A239, N-(3-(Difluoromethyl)-1-phenyl-1H-pyrazol-4-yl)-6-(1H-pyrazol-5-yl)picolinamide] | < 0.1 µM
CC(C)(O)c1nn(-c2ccccc2)cc1NC(=O)c1cccc(-c2ccn[nH]2)n1 [Compound A240, N-(3-(2-Hydroxypropan-2-yl)-1-phenyl-1H-pyrazol-4-yl)-6-(1H-pyrazol-5-yl)picolinamide] | < 0.1 µM
CC(=O)c1nn(-c2ccccc2)cc1NC(=O)c1cccc(-c2ccn[nH]2)n1 [Compound A241, N-(3-Acetyl-1-phenyl-1H-pyrazol-4-yl)-6-(1H-pyrazol-5-yl)picolinamide] | < 0.1 µM
[2H]C([2H])C(=O)c1nn(-c2ccccc2)cc1NC(=O)c1cccc(-c2ccn[nH]2)n1 [Compound A242, N-(3-(Acetyl-2,2-d2)-1-phenyl-1H-pyrazol-4-yl)-6-(1H-pyrazol-5-yl)picolinamide] | < 0.1 µM
O=C(Nc1cn(-c2ccccc2)nc1C(=O)C(F)(F)F)c1cccc(-c2ccn[nH]2)n1 [Compound A243, N-(1-Phenyl-3-(2,2,2-trifluoroacetyl)-1H-pyrazol-4-yl)-6-(1H-pyrazol-5-yl)picolinamide] | < 0.1 µM
O=C(Nc1cn(-c2ccccc2)nc1C(=O)C(F)F)c1cccc(-c2ccn[nH]2)n1 [Compound A244, N-(3-(2,2-difluoroacetyl)-1-phenyl-1H-pyrazol-4-yl)-6-(1H-pyrazol-5-yl)picolinamide] | < 0.1 µM
O=C(Nc1cn(-c2ccccc2)nc1C1CCN1)c1cccc(-c2ccn[nH]2)n1 (stereo not shown) [Compound A245, N-(3-(Azetidin-2-yl)-1-phenyl-1H-pyrazol-4-yl)-6-(1H-pyrazol-5-yl)picolinamide] | > 1 µM
CNC(=O)c1nn(-c2ccccc2)cc1NC(=O)c1cccc(-c2ccn[nH]2)n1 [Compound A246, N-(3-(Methylcarbamoyl)-1-phenyl-1H-pyrazol-4-yl)-6-(1H-pyrazol-5-yl)picolinamide] | < 0.1 µM
CC(C)NC(=O)c1nn(-c2ccccc2)cc1NC(=O)c1cccc(-c2ccn[nH]2)n1 [Compound A247, N-(3-(Isopropylcarbamoyl)-1-phenyl-1H-pyrazol-4-yl)-6-(1H-pyrazol-5-yl)picolinamide] | 0.1 to 1 µM
CNS(=O)(=O)c1nn(-c2ccccc2)cc1NC(=O)c1cccc(-c2ccn[nH]2)n1 [Compound A248, N-(3-(N-Methylsulfamoyl)-1-phenyl-1H-pyrazol-4-yl)-6-(1H-pyrazol-5-yl)picolinamide] | < 0.1 µM
CC(C)NS(=O)(=O)c1nn(-c2ccccc2)cc1NC(=O)c1cccc(-c2ccn[nH]2)n1 [Compound A249, N-(3-(N-Isopropylsulfamoyl)-1-phenyl-1H-pyrazol-4-yl)-6-(1H-pyrazol-5-yl)picolinamide] | 0.1 to 1 µM
O=C(Nc1cn(-c2ccccc2)nc1C(=O)NC1CC1)c1cccc(-c2ccn[nH]2)n1 [Compound A250, N-(3-(Cyclopropylcarbamoyl)-1-phenyl-1H-pyrazol-4-yl)-6-(1H-pyrazol-5-yl)picolinamide] | < 0.1 µM
O=C(Nc1cn(-c2ccccc2)nc1C(=O)NC1CC1(F)F)c1cccc(-c2ccn[nH]2)n1 (stereo not shown) [Compound A251, N-(3-((2,2-Difluorocyclopropyl)carbamoyl)-1-phenyl-1H-pyrazol-4-yl)-6-(1H-pyrazol-5-yl)picolinamide] | < 0.1 µM
O=C(Nc1cn(C2CCC2)nc1C(=O)NC1CC1)c1cccc(-c2ccn[nH]2)n1 [Compound A252, N-(1-Cyclobutyl-3-(cyclopropylcarbamoyl)-1H-pyrazol-4-yl)-6-(1H-pyrazol-5-yl)picolinamide] | < 0.1 µM
O=C(Nc1cn(C2CNC2)nc1C(=O)NC1CC1)c1cccc(-c2ccn[nH]2)n1 [Compound A253, N-(1-(Azetidin-3-yl)-3-(cyclopropylcarbamoyl)-1H-pyrazol-4-yl)-6-(1H-pyrazol-5-yl)picolinamide] | < 0.1 µM
